Assay [1] deals with T1, Mu-type opioid receptor (Homo sapiens, UniProt P35372). The assay can be described thus: Displacement of [3H]DAMGO from mu-opioid receptor (unknown origin).
In assay [2] the target is T2, Delta-type opioid receptor (Homo sapiens, UniProt P41143). The assay can be described thus: Displacement of [3H]DPDPE from delta-opioid receptor (unknown origin).
The target of assay [3] is T3, Kappa-type opioid receptor (Homo sapiens, UniProt P41145). Briefly: Displacement of [3H]U-69593 from kappa-opioid receptor (unknown origin).
For assay [4], the species on record is Homo sapiens. The assay can be described thus: Selectivity ratio Ki for mu-opioid receptor (unknown origin) to Ki for delta-opioid receptor (unknown origin).
The species entered for assay [5] is Homo sapiens. Briefly: Selectivity ratio Ki for kappa-opioid receptor (unknown origin) to Ki for delta-opioid receptor (unknown origin).
For assay [6], the target named is T2, Delta-type opioid receptor. The assay can be described thus: Agonist activity at delta-opioid receptor (unknown origin) by [35S]GTPgammaS binding assay. The class given is functional.
Assay [7] deals with T1, Mu-type opioid receptor. Briefly: Agonist activity at mu-opioid receptor (unknown origin) by [35S]GTPgammaS binding assay. The class given is functional.
For assay [8], the target named is T3, Kappa-type opioid receptor. The assay can be described thus: Agonist activity at kappa-opioid receptor (unknown origin) by [35S]GTPgammaS binding assay.

T2 sequence (P41143 whole entry): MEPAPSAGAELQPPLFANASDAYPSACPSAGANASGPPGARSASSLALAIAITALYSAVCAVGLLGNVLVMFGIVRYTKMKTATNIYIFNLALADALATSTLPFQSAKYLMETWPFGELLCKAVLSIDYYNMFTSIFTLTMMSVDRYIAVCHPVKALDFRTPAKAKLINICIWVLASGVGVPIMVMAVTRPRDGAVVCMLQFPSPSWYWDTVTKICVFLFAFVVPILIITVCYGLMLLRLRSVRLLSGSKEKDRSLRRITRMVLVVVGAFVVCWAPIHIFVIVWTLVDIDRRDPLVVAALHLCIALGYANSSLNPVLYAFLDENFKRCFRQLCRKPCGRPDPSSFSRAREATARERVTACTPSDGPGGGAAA
T3 sequence (P41145 whole entry): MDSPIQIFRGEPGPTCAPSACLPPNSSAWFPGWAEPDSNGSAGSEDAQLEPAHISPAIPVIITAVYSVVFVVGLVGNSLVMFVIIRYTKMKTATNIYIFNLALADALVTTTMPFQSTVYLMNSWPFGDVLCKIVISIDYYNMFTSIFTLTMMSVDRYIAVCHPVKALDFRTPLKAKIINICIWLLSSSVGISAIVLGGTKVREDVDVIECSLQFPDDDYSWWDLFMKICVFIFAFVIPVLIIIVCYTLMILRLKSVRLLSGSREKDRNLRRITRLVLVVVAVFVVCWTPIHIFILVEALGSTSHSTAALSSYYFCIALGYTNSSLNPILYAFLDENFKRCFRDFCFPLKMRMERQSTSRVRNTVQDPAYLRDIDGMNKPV
T1 sequence (P35372 whole entry): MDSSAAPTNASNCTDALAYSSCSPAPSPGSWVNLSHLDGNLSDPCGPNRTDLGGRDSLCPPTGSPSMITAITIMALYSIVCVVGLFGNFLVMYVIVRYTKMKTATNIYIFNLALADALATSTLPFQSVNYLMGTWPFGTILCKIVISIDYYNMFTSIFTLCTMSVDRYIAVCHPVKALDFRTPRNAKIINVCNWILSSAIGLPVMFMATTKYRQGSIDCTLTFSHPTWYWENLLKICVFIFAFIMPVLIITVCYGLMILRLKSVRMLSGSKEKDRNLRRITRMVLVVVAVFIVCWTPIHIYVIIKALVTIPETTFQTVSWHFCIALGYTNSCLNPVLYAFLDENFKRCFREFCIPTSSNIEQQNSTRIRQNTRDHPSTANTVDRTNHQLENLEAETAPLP

On to `Oc1ccc2c(c1)[C@]13CCN(CC4CC4)C[C@@]1(C2)Cc1cc2ccccc2nc1C3`, for which the inhibition constant (Ki) on Mu-type opioid receptor [1] worked out at 112 nM; in assay [2], 0.941 nM; in assay [3], 84.6 nM. In addition, the Ratio Ki in the assay listed under Homo sapiens [4] came to 119; in the assay listed under Homo sapiens [5] it was 89.9. Also, the concentration for a half-maximal effect (EC50) was found to be 2.5 nM in assay [6], 197 nM on Mu-type opioid receptor [7] and 836 nM in assay [8]. Further, the Emax in assay [6] was 88%; on Mu-type opioid receptor [7], 56%.
Regarding `Oc1ccc2c(c1)[C@]13CCN(CC4(O)CC4)C[C@@]1(C2)Cc1cc2ccccc2nc1C3`, the Ki on Mu-type opioid receptor [1] came out at 415 nM; in assay [2], 1.1 nM; in assay [3] it was 879 nM. In addition, the Ratio Ki in the assay listed under Homo sapiens [4] amounted to 378; in the assay filed under Homo sapiens [5] it was 801.
With `Oc1ccc2c(c1)[C@]13CCN(Cc4ccccc4)C[C@@]1(C2)Cc1cc2ccccc2nc1C3`, the values for the inhibition constant Ki (at Mu-type opioid receptor [1]; in assay [2]; in assay [3]) were 76.3 nM, 31.6 nM and 594 nM, respectively. The figures for the Ratio Ki in the assay filed under Homo sapiens [4] and in the assay listed under Homo sapiens [5] were 2.42 and 18.8, respectively.
The corresponding values for `CN1CC[C@]23Cc4nc5ccccc5cc4C[C@]2(Cc2ccc(O)cc23)C1` are 3.06 nM, 1.88 nM, 195 nM, 1.63 and 104.
On to `O=C1CC[C@@]23Cc4ccc(O)cc4[C@@]2(CCN(CC2CC2)C3)C1`, for which the inhibitory constant (Ki) at Mu-type opioid receptor [1] was determined as 58.2 nM; in assay [2], 448 nM; in assay [3], 17.4 nM.

(Values after ChEMBL document CHEMBL3286318, “Design and synthesis of quinolinopropellane derivatives with selective δ opioid receptor agonism” (Bioorg Med Chem Lett, 2014).)
